Columns and labels:
H16.A2 = experiment: 51Cr release, CD8+ cells stimulated with K104-V113 peptides (Example 17); type: cell-based, human; conditions: for Raw Chromium Values: target H16.A2
21NT = experiment: as above; type: cell-based, human; conditions: target 21NT, CD8+ cells of donor stimulated with peptide pulsed DCs; for Raw Chromium Values: Table 13; for Percentage of Target Cells Lysed: Table 14
21NT.A2 = experiment: as above; type: cell-based, human; conditions: target 21NT.A2
K562 = experiment: as above; type: cell-based, human; conditions: for Raw Chromium Values: target K562
PCl-13 = experiment: as above; type: cell-based, human; conditions: target PCl-13, CD8+ cells of donor stimulated with peptide pulsed DCs; for Raw Chromium Values: Table 13; for Percentage of Target Cells Lysed: Table 14
PCl-13 K104-V113-Ser = experiment: as above; type: cell-based, human; conditions: CD8+ cells of donor stimulated with peptide pulsed DCs; for Raw Chromium Values: Table 13, target PCl-13 K104-V113-Ser; for Percentage of Target Cells Lysed: Table 14, target Pcl-13 K104-V113-Ser
21NT.A2-Ser = experiment: as above; type: cell-based, human; conditions: target 21NT.A2-Ser, effector to target 30:1, CD8+ cells 12 days in IL-2 after fourth stimulation; for Raw Chromium Values: Table 15 (repeat); for Percentage of Target Cells Lysed: Table 16 (repeat)
Mel 1700 = experiment: as above; type: cell-based, human; conditions: target Mel 1700, effector to target 30:1, CD8+ cells 12 days in IL-2 after fourth stimulation; for Raw Chromium Values: Table 15 (repeat); for Percentage of Target Cells Lysed: Table 16 (repeat)
Mel 501 = experiment: as above; type: cell-based, human; conditions: target Mel 501, effector to target 30:1, CD8+ cells 12 days in IL-2 after fourth stimulation; for Raw Chromium Values: Table 15 (repeat); for Percentage of Target Cells Lysed: Table 16 (repeat)
Mel F002 = experiment: as above; type: cell-based, human; conditions: for Raw Chromium Values: Table 15 (repeat), target Mel F002, effector to target 30:1, CD8+ cells 12 days in IL-2 after fourth stimulation; for Percentage of Target Cells Lysed: Table 16 (repeat), effector to target 30:1, CD8+ cells 12 days in IL-2 after fourth stimulation
Mel 1359 = experiment: as above; type: cell-based, human; conditions: target Mel 1359, effector to target 30:1, CD8+ cells 12 days in IL-2 after fourth stimulation; for Raw Chromium Values: Table 15 (repeat); for Percentage of Target Cells Lysed: Table 16 (repeat)
EBV-B target cells = experiment: C35 peptide mediated T cell lysis of peptide pulsed EBV-B cells (Table 10); type: cell-based, human; conditions: for % Lysis EBV-B cell Target: target pulsed with peptide
B/C.N cells = experiment: 51Cr release (CML), sensitization of B/C.N to lysis by tumor specific CTL; type: cell-based, mouse; conditions: for sensitization of B/C.N cells to lysis by tumor-specific CTL: 4 hours; for peptide concentration to sensitize targets to lysis by CTL: B/C.N targets
[1] = Table 13, CD8+ cells of donor stimulated with peptide pulsed DCs
[2] = Table 14, CD8+ cells of donor stimulated with peptide pulsed DCs
[3] = Table 15 (repeat), effector to target 30:1, CD8+ cells 12 days in IL-2 after fourth stimulation
[4] = Table 16 (repeat), effector to target 30:1, CD8+ cells 12 days in IL-2 after fourth stimulation
[5] = T cell clone #72, donor (A2, A3; B18, B44)
[6] = T cell clone #75, donor (A2, A3; B18, B44)
[7] = T cell clone #104, donor (A2, A3; B18, B44)
[8] = T cells from donor with A2, A3, B18, B44 HLA haplotypes raised against 9mer 22-30
[9] = T cell clones from donor with A3, A66, B8 and B41 HLA haplotypes

Substance | Raw Chromium Values (H16.A2; [1]) | Percentage of Target Cells Lysed (H16.A2; [2]) | Raw Chromium Values (H16.A2; [3]) | Percentage of Target Cells Lysed (H16.A2; [4]) | Raw Chromium Values (21NT) | Percentage of Target Cells Lysed (21NT) | Raw Chromium Values (21NT.A2; [1]) | Percentage of Target Cells Lysed (21NT.A2; [2]) | Raw Chromium Values (21NT.A2; [3]) | Percentage of Target Cells Lysed (21NT.A2; [4]) | Raw Chromium Values (K562; [1]) | Percentage of Target Cells Lysed (K562; [2]) | Raw Chromium Values (K562; [3]) | Percentage of Target Cells Lysed (K562; [4]) | Raw Chromium Values (PCl-13) | Percentage of Target Cells Lysed (PCl-13) | Raw Chromium Values (PCl-13 K104-V113-Ser) | Percentage of Target Cells Lysed (PCl-13 K104-V113-Ser) | Raw Chromium Values (21NT.A2-Ser) | Percentage of Target Cells Lysed (21NT.A2-Ser) | further results
K104-V113-cys-cys: K104-V113 peptide fragment of C35 containing a cysteinylated cysteine at amino acid position 112 | 440 | 0.2% | 1024 | 5.8% | 171 | −0.1% | 1329 | 20.1% | 2337 | 19.1% | 287 | 0.9% | 1713 | 16.2% | 486 | −1.7% | 1772 | 35.3% | 4474 | 51.9% | Raw Chromium Values (Mel 1700): 1857; Percentage of Target Cells Lysed (Mel 1700): 7.2%; Raw Chromium Values (Mel 501): 4474; Percentage of Target Cells Lysed (Mel 501): 21.2%; Raw Chromium Values (Mel F002): 1713; Percentage of Target Cells Lysed (Mel F002): 11.2%; Raw Chromium Values (Mel 1359): 2299; Percentage of Target Cells Lysed (Mel 1359): 2.5%
peptide 17-31: 15mer corresponding to amino acids 17-31 of C35 (SEQ ID NO:2) (VEPGSGVRIVVEYCE; listed as Homo sapiens) | – | – | – | – | – | – | – | – | – | – | – | – | – | – | – | – | – | – | – | – | % Lysis EBV-B cell Target (EBV-B target cells; [5]): 0.5%; % Lysis EBV-B cell Target (EBV-B target cells; [6]): 1.2%; % Lysis EBV-B cell Target (EBV-B target cells; [7]): 6.4%; lytic activity on EBV-B target cells pulsed with peptide (EBV-B target cells; [8]): minimal lysis
L345-54 (I54): peptide of ribosomal protein L3, positions 45-54 with Ile 54 (AFLGYKAGMI) | – | – | – | – | – | – | – | – | – | – | – | – | – | – | – | – | – | – | – | – | sensitization of B/C.N cells to lysis by tumor-specific CTL (B/C.N cells): did not
L348-56 (T54): wild type ribosomal protein L3 peptide 48-56 with Thr 54 (GYKAGMTHI) [reference compound] | – | – | – | – | – | – | – | – | – | – | – | – | – | – | – | – | – | – | – | – | sensitization of B/C.N cells to lysis by tumor-specific CTL (B/C.N cells): did not; peptide concentration to sensitize targets to lysis by CTL (B/C.N cells): > 100 µM
KITNSRPPSV (synthetic analog of human C35 epitope) [K104-V113-Ser] | 584 | 2.6% | 1018 | 5.6% | 185 | 0.5% | 3228 | 63.2% | 4957 | 53.4% | 323 | 2.5% | 974 | 5.3% | 581 | 1.1% | 2588 | 58.7% | 4762 | 56.0% | Raw Chromium Values (Mel 1700): 2951; Percentage of Target Cells Lysed (Mel 1700): 24.1%; Raw Chromium Values (Mel 501): 4762; Percentage of Target Cells Lysed (Mel 501): 45.3%; Raw Chromium Values (Mel F002): 974; Percentage of Target Cells Lysed (Mel F002): 15.1%; Raw Chromium Values (Mel 1359): 2357; Percentage of Target Cells Lysed (Mel 1359): 3.0%
GGFPYEKDL [peptide 81-89] | – | – | – | – | – | – | – | – | – | – | – | – | – | – | – | – | – | – | – | – | lytic activity on EBV-B target cells pulsed with peptide (EBV-B target cells; [9]): 40.3%
KITNSRPPCV [K104-V113] | 483 | 0.9% | 948 | 4.3% | 137 | −1.5% | 1429 | 22.4% | 2753 | 24.6% | 311 | 2.0% | 1156 | 8.0% | 804 | 7.6% | 1403 | 24.8% | 3729 | 41.5% | Raw Chromium Values (Mel 1700): 1964; Percentage of Target Cells Lysed (Mel 1700): 8.9%; Raw Chromium Values (Mel 501): 3729; Percentage of Target Cells Lysed (Mel 501): 36.0%; Raw Chromium Values (Mel F002): 1156; Percentage of Target Cells Lysed (Mel F002): 15.7%; Raw Chromium Values (Mel 1359): 2758; Percentage of Target Cells Lysed (Mel 1359): 7.0%
GVRIVVEYC [peptide 22-30] | – | – | – | – | – | – | – | – | – | – | – | – | – | – | – | – | – | – | – | – | % Lysis EBV-B cell Target (EBV-B target cells; [5]): 72.8%; % Lysis EBV-B cell Target (EBV-B target cells; [6]): 56.8%; % Lysis EBV-B cell Target (EBV-B target cells; [7]): 100.3%; lytic activity on EBV-B target cells pulsed with peptide (EBV-B target cells; [8]): very active
IEINGQLVF [peptide 67-75] | – | – | – | – | – | – | – | – | – | – | – | – | – | – | – | – | – | – | – | – | lytic activity on EBV-B target cells pulsed with peptide (EBV-B target cells; [9]): 54.9%
L348-56 (I54): peptide of ribosomal protein L3, positions 48-56 with Ile 54; target epitope of tumor-specific CTL (GYKAGMIHI) | – | – | – | – | – | – | – | – | – | – | – | – | – | – | – | – | – | – | – | – | sensitization of B/C.N cells to lysis by tumor-specific CTL (B/C.N cells): sensitized B/C.N to lysis; peptide concentration to sensitize targets to lysis by CTL (B/C.N cells): ≤ 0.01 µM
QLVFSKLENGGFPYE [peptide 72-86] | – | – | – | – | – | – | – | – | – | – | – | – | – | – | – | – | – | – | – | – | % Lysis EBV-B cell Target (EBV-B target cells; T cell clone #46, donor (A2, A3; B18, B44)): 78.5%; lytic activity on EBV-B cells pulsed with peptide (EBV-B target cells; T cell clones from donor with A2, A3, B18, B44 HLA haplotypes): 78.5%
KITNSRPPAV (synthetic analog of human C35 epitope) [K104-V113-Ala] | 479 | 0.9% | 829 | 2.0% | 155 | −0.7% | 763 | 7.3% | 1365 | 6.4% | 246 | −0.9% | 815 | 2.9% | 468 | −2.2% | 746 | 6.0% | 2423 | 22.5% | Raw Chromium Values (Mel 1700): 1543; Percentage of Target Cells Lysed (Mel 1700): 2.4%; Raw Chromium Values (Mel 501): 2423; Percentage of Target Cells Lysed (Mel 501): 11.1%; Raw Chromium Values (Mel F002): 815; Percentage of Target Cells Lysed (Mel F002): 7.6%; Raw Chromium Values (Mel 1359): 3050; Percentage of Target Cells Lysed (Mel 1359): 9.9%

— patent publication US7563882B2, “Polynucleotides encoding antibodies that bind to the C35 polypeptide” (University of Rochester, priority 2002, dated 2009)
